# From patent US9745299B2, “Substituted tricyclic benzimidazoles as kinase inhibitors” (SELVITA SA, priority 2012, dated 2017)
# Structures can show the parent of a compound that is named as a salt.
# Columns and labels:
# HCT116 cells [1] = assay: Matrigel Invasion Chambers, HCT116 invasion; assay type: cell-based, human; conditions: increasing concentrations, 22 h, 10% FBS chemoattractant
# Method: Matrigel Invasion Chambers [catalog number 354480 (BD Biosciences)] are useful to study cell invasion of malignant and normal cells. Matrigel Invasion Chambers can be used to study the mechanisms of invasion and to identify factors that interfere with this process in an in vitro environment. According to standard assays known to the skilled person, 5×10^4 HCT116 cells/ml were added in each case to the upper chamber of the Matrigel Invasion Chambers in the presence of increasing concentrations of “Example 1K”, whereas chemoatractant comprising 10% FBS was added to the lower chamber. The Invasion Chambers were incubated for 22 h in a humidified tissue culture incubator at 37° C., 5% CO2. Non-invading cells were removed by scrubing. The cells on the lower surface of the membrane were then stained with Diff-Quik™ stain. The results shown in FIG. 4 indicate that strong and selective CDK8 inhibitors as the “Example 1K” compound appear to be capable of repressing invasiveness of HCT116 colon cancer cells.
# HCT116 cells [2] = assay: Combination with Oxaliplatin, MTS cell viability assay, Chou-Thalay method; assay type: cell-based, human
# Source text: Various well-accepted models exist for determination of synergistic and additive effect for two or more drugs in combination. As a matter of example combination index CI can be used as a quantitative measure of the degree of drug interaction in terms of synergism, additive effects and antagonism for a given endpoint of the measurement:
# Synergism (C<1) greater than expected additive effect
# Additive effect (CI=1) the combined effect predicted by the mass-action law principle in the absence of synergism or antagonism
# Antagonism (CI>1) Smaller than expected additive effect
# In the present example, the drug interactions between compound “Example 6” and Oxaliplatin which is a platinum-based type of anticancer chemotherapy medicine used to treat colorectal cancer were tested in HCT116 cells. Experimental data points in the MTS cell viability assay were spread for Oxaliplatin below and above the ED50 values in HCT116 cells, whereas concentration of the tested compounds was close to the apparent ED50. Chou-Thalay method for quantification of synergy was applied [Chou et al. Cancer Res. 15; 70(2):440-6, (2010)].
# TNFalpha = assay: LPS assay, TNFα ELISA in RAW 264.7; assay type: cell-based, mouse; conditions: RAW 264.7, 4 h pre-incubation, LPS 1 μg/ml for 6 h
# Source text: The LPS assay was used to evaluate ability to respond to an inflammatory stimulus by mounting an acute phase response. The acute phase response is characterized by a dramatic increase in the production of a group of proteins by the liver. Bacterial LPS is an endotoxin, a potent inducer of the acute phase response and systemic inflammation. This response is induced by the production of TNFα, IL-1β, and IL-6 from activated monocytes and neutrophils in response to inflammatory stimuli. Evaluation of the three pro-inflammatory cytokines, TNFα, IL-1β, and IL-6, is the current standard method for evaluation of the ability of the immune system to mount an innate inflammatory immune response. In each case, and by methods known to those practiced in the art, RAW 264.7 Mouse leukaemic monocyte macrophage cells were plated at the density of 40 000 cells per well. Next day, cells were pre-incubated with tested compounds (fconc=10 μM) for 4 h and then stimulated with LPS (fconc=1 μg/ml) for 6 h. In the cell culture media IL-6 and TNFα levels were examined by ELISA using BD OptEIA™ Mouse IL-6 ELISA Set Cat. No 555240 and BD OptEIA™ Mouse TNFα ELISA Set Cat. No 555268 (BD Biosciences Pharmingen, SanDiego, Calif., USA), according to manufacturer's instructions.
Structure (SMILES),invasiveness of HCT116 cells (FIG. 4) (HCT116 cells [1]),Combination Index (CI) (HCT116 cells [2]; Example 6 0.6 μM + Oxaliplatin 0.0010 μM),Combination Index (CI) (HCT116 cells [2]; Example 6 0.6 μM + Oxaliplatin 0.01 μM),Combination Index (CI) (HCT116 cells [2]; Example 6 0.6 μM + Oxaliplatin 0.1 μM),Combination Index (CI) (HCT116 cells [2]; Example 6 0.6 μM + Oxaliplatin 1.0 μM),Combination Index (CI) (HCT116 cells [2]; Example 6 0.6 μM + Oxaliplatin 2.5 μM),Combination Index (CI) (HCT116 cells [2]; Example 6 0.6 μM + Oxaliplatin 5.0 μM),LPS-induced TNFalpha production (FIG. 3) (TNFalpha)
Cc1c(Br)c(Br)c2c3c1nc(N1CCNCC1)n3CCC2 [Example 1K],Repression of the invasiveness,,,,,,,
"Brc1c(Br)c2c3c(nc(N4CCNCC4)n3CCC2)c1Br [Example 6, 7,8,9-tribromo-2-(piperazin-1-yl)-5,6-dihydro-4H-imidazo[4,5,1-ij]quinoline maleate]",,1.15,0.99,1.11,0.69,0.38,0.29,dose dependent reduction
